Entries after “also recorded” stand apart in the source; their conditions may differ.

What all share (format): cell-based, human
Experiment [1] concerns HEPG2 (ASGPR+). As to the kind of experiment: Adherence of NK/LAK activity to HEPG2 monolayers at 4° C. As to conditions: monolayer pretreated with 200 μg/ml protein, 2 hours at 4° C, assayed on Raji. As for the experimental part: (§1) Control cells (no IL-2 treatment) or LAK cells (IL-2-treated human peripheral blood lymphocytes cultured 10U IL-2/ml for 3 days) were adhered to a monolayer of HEP G2 cells for 2 hours at 4° C. The monolayer was pretreated either with asialofetuin (ASF, 200 μg/ml) in media or with fetuin (F, control, 200 μg/ml)) in media. After the Control or LAK cells had been incubated on the monolayer, these cells were then decanted, washed, and tested for cytotoxic capacity in a ^51Cr-release assay against the NK-resistant target, Raji.

The subject of experiment [2] is HEPG2 (ASGPR+). As to the kind of experiment: Adherence of NK/LAK activity to HEPG2 monolayers at 23° C. The conditions noted are these: 23° C, 200 μg/ml. As for the experimental part: (§2) This experiment is the same as above, except that the adherence to monolayers was performed at 23° C. and not 4° C., for 2 hours. Two monolayers were used: HEPG2, an ASGPR+ cell line, and CAKI-2 (human renal cell carcinoma), an ASGPR− cell line. The effector cell populations that were used were: an untreated 3-day old LAK preparation (LAK) and the same population treated with Vibrio cholera neuraminidase (LAK/NS) (30 mU/1×10^7 cells/200 μl). The neuraminidase-treated population was the asialopositive lymphocyte control. All cell populations regardless of treatment were greater than 90% viable at the time of assay. Each type of effector population was incubated with media alone, 200 μg/ml ASF or F, as controls. All effectors were assayed on RAJI (LAK-sensitive target; NK-insensitive target) or K562 (NK/LAK-sensitive target); the E:T ratios and the graphic presentation are the same above.
(§3) Five-day LAK preparations (20 U/ml; 1 Dupont unit=44.5 BRMP units) grown in AIM-V (Gibco) were treated (according to the protocols in B. 1.2.3 & 1.2.4) with 3 OmU Vibric Cholera neuramindase, 0.48 mU 2,3-or 10 mu 2,6-silalyltransferase per 107 cells. Some of the effectors were incubated in media, 10% PBS in RPMJ 1640 at 23° C. for 2 hours. 2×107 effectors from the untreated LALK, neuramithdase-treated LAK, LAK treated with 2,3 or 2,6 were suspended in 15 ml media and placed onto either HEPG2 (ASGPR+) or CAKI-2 (ASGPR−) monolayers at 23° C. for 2 hours. The flasks were rocked every 15 minutes. The nonadherent cells from these monolayers were decanted and assayed against K562 and RAJI, in addition to the unadhered controls. The E:T ratios used were 40, 20, 10, and 5 to 1.

Experiment [3] has as its system CAKI-2 (ASGPR−). As to the kind of experiment: Adherence of NK/LAK activity to CAKI-2 monolayers at 23° C. As to conditions: 23° C; 200 μg/ml. As for the experimental part:
as §2, §3

Experiment [4] has as its system Caki-2 Targets. As to the kind of experiment: 51Cr-release assay of LAK effectors against CAKI-2 with agent added. As to conditions: for % 51Chromium Release from Caki-2 Targets: agent 250 μg per well, 5-day LAK, 4-hour incubation. The source says:
A working hypothesis is that LAK/NK cells bind to HEPG2 via at least two receptors or recognition structures: 1) the ASGPR, which binds an asialodeterminant on the LAK/NK population and 2) the “LAK” or “NK” recognition structure for a target epitope. The first should be inhibitable by ASF; the second should not be. Binding to CAKI-2 (ASGPR−) should not be inhibited by ASF and is due to a LAK or NK recognition structure binding to the target epitope. This can be further supported by data derived from experiments (see below) in which 250 μg/well of ASF or F were added to the ^51Cr-release assay of LAK effectors against the labeled target CAKI-2.
(% SPECIFIC RELEASE was determined from quadruplicates whose raw counts per minute differed by less than 10 percent; the assay was a standard 4-hour incubation.)

Experiment [5] relates to RAJI (LAK-sensitive target; NK-insensitive target). As to the kind of experiment: Cytotoxic capacity of LAK effectors in 51Cr-release assay on RAJI. The procedure:
as §1, §2, §3

Experiment [6] concerns K562 (NK/LAK-sensitive target). As to the kind of experiment: Cytotoxic capacity of IL-2 activated NK effectors in 51Cr-release assay on K562. As to conditions: 200 μg/ml; 23° C. The procedure:
as §2, §3

The test system of experiment [7] is Caki-2 Targets. As to the kind of experiment: 51Cr-release assay of LAK effectors against CAKI-2 with agent added. As to conditions: concentration of 1 mg/ml.

As to asialofetuin [ASF], the “adherence of LAK activity to HEPG2 monolayer, in words” value was “virtually all LAK activity can be inhibited from adhering” in experiment [1] and “not removed; also recorded: does not adhere” in experiment [1] (listed as asialofetuin). In experiment [2], the “inhibition of adherence to HEPG2 of LAK activity (assayed on RAJI)” value was “could not be inhibited; also recorded: cannot be inhibited”. For the same substance, in experiment [2] (assayed on RAJI), the “inhibition of adherence of LAK activity of the neuraminidase-treated population to HEPG2” value is given as “only marginally be inhibited”. The “inhibition of adherence to HEPG2 of IL-2 activated NK (assayed on K562)” value in experiment [2] (with or without neuraminidase treatment) was “partially inhibited”. Moreover, the “inhibition of adherence to CAKI-2 of IL-2 activated NK or LAK activity” value in experiment [3] is “could not be inhibited; also recorded: cannot be blocked”. Also, the “% 51Chromium Release from Caki-2 Targets” value in experiment [4] (E:T 5:1) was found to be 13%; in experiment [4] (E:T 10:1), 24%; in experiment [4] (E:T 20:1), 41%; in experiment [4] (E:T 40:1) it was 52%. The “blocking of LAK killing of the tumor target CAKI-2, in words” value in experiment [4] (preincubation of targets and addition to the assay at 250 μg per well) is “does not block”. Further, the “activity of LAK or Control preparations incubated with the protein alone versus untreated LAK” value in experiment [5] (200 μg/ml for 2 h at 40C, no monolayer) is on record as “identical activity”. Further, the “ability of effectors (LAK or LAK/NS) to kill RAJI after preincubation with the protein” value in experiment [5] (200 μg/ml, 23° C) is on record as “does not affect”. Moreover, in experiment [6], the “ability of effectors (LAK or LAK/NS) to kill K562 after preincubation with the protein” value is “does not affect”. Besides, the “inhibition of the ability of LAK to kill CAKI-2 target, in words” value in experiment [7] is reported as “did not inhibit”.

For the origin of these results see patent US20070110734A9, “Methods and compositions using cellular asialodeterminants and glycoconjugates for targeting cells to tissues and organs” (Department of Veterans Affairs, Rehabilitation R&D Service, priority 2002, published 2007).
